Data set [1] addresses T1, CYP 3A4 (Homo sapiens, UniProt P08684).
T1 construct: tissue Sekisui Xeno Tech, LLC; host or cells: pooled human liver microsomes
Description: CYP450 inhibition assay, pooled human liver microsomes. The data set is classed as in vitro ADME. The note with it: probe midazolam. How it is done: (§1) In the CYP inhibition assay, human liver microsomes were incubated with the Cu(II) complex or reference standard. The inhibitory effects of these compounds were investigated against the major CYP isoforms namely 1A2, 2C9, 2C19, 2D6, 2B6, 2C8 and 3A4 with their respective isoform probe substrates in one reaction mixture (pooled probe substrate format using LC-MS/MS).
(§2) Pooled human liver microsomes (Sekisui Xeno Tech, LLC., Kansas City, KS, USA) were incubated with different concentrations of Cu(II) complex or reference standards in buffer containing 0.1% DMSO for 10 min at 37°C and the residual enzyme activity was measured using pooled probe substrates method by pooled LC-MS/MS. Briefly, incubation mixtures were prepared in a total volume of 200 μL with final component concentrations as follows: 0.1 M potassium phosphate buffer (pH 7.4), 1.5 mM NADPH, and 0.25 mg/ml HLM. […] After 20 min of incubation, the reactions were terminated by addition of 200 μL ice-cold acetonitrile (Rankem, Avantor Performance Materials India Limited, Andhra Pradesh, India) containing telmisartan and carbamazepine as internal standards (all probe substrates and standards were from Sigma Aldrich). Each reaction mixture was centrifuged at 3,500 rpm for 5 min and the supernatant was subjected to LC-MS/MS analysis. The percent inhibition was calculated using the following equation: %Inhibition=100‑[(activityintestwells/activityinbasalcontrolwells)×100]

For data set [2], the target named is T2, CYP 1A2 (Homo sapiens, UniProt P05177).
T2 construct: tissue Sekisui Xeno Tech, LLC; host or cells: pooled human liver microsomes
T2 sequence (P05177 1-516): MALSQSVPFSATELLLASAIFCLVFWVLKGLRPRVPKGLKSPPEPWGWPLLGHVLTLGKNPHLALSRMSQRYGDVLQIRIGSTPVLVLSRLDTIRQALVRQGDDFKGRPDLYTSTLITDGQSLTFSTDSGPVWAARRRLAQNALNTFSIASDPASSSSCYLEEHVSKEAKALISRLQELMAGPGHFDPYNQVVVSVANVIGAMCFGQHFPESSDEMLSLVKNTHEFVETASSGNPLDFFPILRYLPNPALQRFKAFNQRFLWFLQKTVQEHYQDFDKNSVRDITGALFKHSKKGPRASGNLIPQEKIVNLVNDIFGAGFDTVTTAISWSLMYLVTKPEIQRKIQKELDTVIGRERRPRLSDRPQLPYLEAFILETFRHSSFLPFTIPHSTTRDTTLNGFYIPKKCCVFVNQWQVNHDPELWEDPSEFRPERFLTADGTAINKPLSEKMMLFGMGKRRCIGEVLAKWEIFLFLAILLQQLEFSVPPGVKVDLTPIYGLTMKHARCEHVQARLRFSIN
Described as above. In kind it is in vitro ADME. The note with it: probe phenacetin. How it is done: as §1, §2

Data set [3] concerns C666-1-GFP-Luc2 xenograft. Description: In vivo efficacy in C666-1-GFP-Luc2 xenograft model. On the set-up: species or system NOD scid gamma female mice. From the text: Next, we assessed the anticancer efficacy of the Cu(II) complex on another NPC xenograft, the EBV positive C666-1-GFP-Luc2 cells. […] Two mice in this group completed the 14 doses but died on the last day of the experiment while one mouse died on day 13 after receiving 12 doses of the Cu(II) complex. […] Harvested major organs sections stained with hematoxylin and eosin dyes were also examined. […] Therefore, no toxicity was found in mice carrying nasopharyngeal C666-1-GFP-Luc2 when treated with Cu(II) complexes at the doses of 4 mg/kg and 5 mg/kg. The underlying cause of death, presumed to be due to toxicity at the dose of 6 mg/kg, could not be ascertained conclusively because although the liver size was smaller in the treated group, the histopathology of the liver appeared normal and no other abnormalities were detected other than lower spleen size.
2.0 x 10^6 HK1 or C666-1-GFP-Luc2 cells in 100 μl RPMI media mixed with matrigel (BD Matrigel Basement Membrane Matrix; BD Biosciences, Bedford, MA, USA) was inoculated subcutaneously into the right lower flank of the NSG mice. Tumor growth was monitored and measured every other day using a digital caliper (Mitutoyo America Corporation, Aurora, Illinois, USA) until they reached 100–250 mm^3. Then, the mice were randomly assigned into treatment groups. The mice bearing HK1 xenograft tumor were divided into 3 treatment groups and a control (normal saline) group. The first batch received normal saline (one injection daily for 5 days), 6 mg/kg (one injection daily for 5 days) and 8 mg/kg (one injection every other day for 3 doses) of Cu(II) complex while the second batch received normal saline (one injection daily for 4 days), 4 mg/kg (one injection daily for 4 days), 6 mg/kg (one injection daily for 4 days) and 8 mg/kg (one injection every other day for 2 doses) of Cu(II) complex via intraperitoneal route.
Subsequently, for the efficacy assay using mice bearing C666-1-GFP-Luc2 cells, 3 sets of control group versus experimental group were tested in three independent experiments. Mice were randomly assigned into 4, 5 or 6 mg/kg Cu(II) complex and their control groups respectively. Injections were given once daily for 12 to 18 days. Body weight change, food intake, signs of toxicity/morbidity as well as mortality were observed and recorded daily for the duration of the entire experiment. Tumor volumes were determined using a caliper thrice weekly. Tumor volumes were calculated according to the following formula: Tumor volume (mm^3) = (length [mm] X width^2 [mm^2])/2. At the end point of the studies, mice were placed under anesthesia for blood collection via submandibular and cardiac puncture before they were sacrificed for histopathological investigations. Tumors were harvested, imaged, weighed and fixed in formalin.
All H&E-stained tissue section slides were examined under Nikon Eclipse Ni microscope (Nikon Instruments Inc., New York, USA) and microscopic images were taken using 20x and 40x objectives. For H&E tumor section slides, the percentage of tumor necrosis was determined qualitatively using microscope by the histopathologist in order to estimate the percentage of necrotic area induced by the Cu(II) complex in the tumors. For determination of femoral bone marrow suppression, low power (10x magnification) objective was used to scan the slides while 100x magnification to assess the degree of cellularity and amount of fat present.
Firstly, 4 ml of rhodamine stock solution was combined with 46 ml of acetate buffer solution in order to prepare a working rhodamine solution. Tissue sections were prepared, deparaffinized and hydrated in distilled water. Then, a loosely capped staining jar containing working rhodamine was warmed in the microwave oven (Panasonic Corporation, Osaka, Japan). The slide with tissue section was placed in warmed working rhodamine solution and reheated using microwave oven. […]

T1 sequence (P08684 whole entry): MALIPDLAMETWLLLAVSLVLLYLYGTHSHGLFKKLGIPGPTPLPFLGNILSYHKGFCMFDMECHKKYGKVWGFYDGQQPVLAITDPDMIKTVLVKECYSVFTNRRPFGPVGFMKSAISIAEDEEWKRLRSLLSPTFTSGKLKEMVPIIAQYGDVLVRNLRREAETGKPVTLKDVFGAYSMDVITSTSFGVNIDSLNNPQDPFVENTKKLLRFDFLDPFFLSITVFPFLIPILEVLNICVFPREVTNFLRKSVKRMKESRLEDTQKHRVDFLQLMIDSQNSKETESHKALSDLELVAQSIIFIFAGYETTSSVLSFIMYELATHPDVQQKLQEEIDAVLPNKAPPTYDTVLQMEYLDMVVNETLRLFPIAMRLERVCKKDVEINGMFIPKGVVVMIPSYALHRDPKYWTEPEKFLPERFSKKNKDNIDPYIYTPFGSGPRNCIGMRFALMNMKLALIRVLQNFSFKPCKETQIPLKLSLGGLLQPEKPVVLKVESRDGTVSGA

Turning to `CC(C)(N)C(=O)[O-].O.O=[N+]([O-])[O-].[Cu+2].c1cnc2c(c1)ccc1cccnc12` [Cu(II) complex, [Cu(phen)(C-dmg)(H2O)]NO3], the IC50 was found to be 5.46 µM in data set [1] and 8.01 µM in data set [2]. Also, the tumor growth entry in data set [3] (4 mg/kg ip daily, 18 days) was “not effective”; in data set [3] (5 and 6 mg/kg ip daily), “significant tumor growth inhibition”. In data set [3] (6 mg/kg ip daily), the “survival throughout the experiment” value was “only one mouse out of four”. The “Copper staining of liver sections” value in data set [3] (4, 5 and 6 mg/kg) is reported as “negative for copper deposits”. For the same compound, in data set [3] (4, 5 and 6 mg/kg), the body weight entry is “little influence”. For the same compound, the “weight of vital organs” value in data set [3] (4, 5 and 6 mg/kg, except for liver in the 6 mg/kg group) is listed as “no significant differences”. Also, in data set [3] (4 and 5 mg/kg dose regimens), the tolerability entry is “well tolerated”. Further, the “Histopathological examination of heart, liver, kidney and lung” value in data set [3] (all the groups) is listed as “did not show any obvious abnormal changes”. Further, in data set [3] (treated groups vs control groups, concentration dependent), the “necrotic area in the tumor xenografts” value was “higher percentage of necrotic area”.

The record behind these values is publication PMC5766233, “Ternary copper(II) complex: NCI60 screening, toxicity studies, and evaluation of efficacy in xenograft models of nasopharyngeal carcinoma” (PLoS ONE, 2018).
